The results in this text go back to patent US11712438B2, “Phenyl derivatives as PGE2 receptor modulators” (IDORSIA PHARMACEUTICALS LTD, priority 2017, dated 2023).

Some targets named below: EP2 (Homo sapiens, UniProt P43116); EP4 (Homo sapiens, UniProt P35408); PTGER2 (EP2) (Homo sapiens, UniProt P43116); PTRGER4 (EP4) (Homo sapiens, UniProt P35408).
Holding throughout (assay): cell-based

Structures are written as SMILES.

Chain of PTRGER4 (EP4) (P35408 whole entry): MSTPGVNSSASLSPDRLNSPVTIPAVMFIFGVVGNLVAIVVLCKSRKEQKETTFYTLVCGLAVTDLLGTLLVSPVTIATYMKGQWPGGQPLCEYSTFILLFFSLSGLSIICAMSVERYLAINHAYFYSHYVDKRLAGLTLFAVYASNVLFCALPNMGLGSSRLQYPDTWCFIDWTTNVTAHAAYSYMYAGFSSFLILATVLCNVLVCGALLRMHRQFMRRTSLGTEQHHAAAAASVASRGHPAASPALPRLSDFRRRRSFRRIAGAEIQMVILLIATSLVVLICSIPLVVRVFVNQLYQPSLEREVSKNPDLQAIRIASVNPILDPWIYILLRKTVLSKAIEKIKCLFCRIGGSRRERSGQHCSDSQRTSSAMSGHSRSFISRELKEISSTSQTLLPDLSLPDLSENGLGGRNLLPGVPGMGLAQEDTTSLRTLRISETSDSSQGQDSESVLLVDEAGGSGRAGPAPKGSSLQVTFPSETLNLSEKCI
Chain of EP4 (P35408 whole entry): as above
Chain of EP2 (P43116 whole entry): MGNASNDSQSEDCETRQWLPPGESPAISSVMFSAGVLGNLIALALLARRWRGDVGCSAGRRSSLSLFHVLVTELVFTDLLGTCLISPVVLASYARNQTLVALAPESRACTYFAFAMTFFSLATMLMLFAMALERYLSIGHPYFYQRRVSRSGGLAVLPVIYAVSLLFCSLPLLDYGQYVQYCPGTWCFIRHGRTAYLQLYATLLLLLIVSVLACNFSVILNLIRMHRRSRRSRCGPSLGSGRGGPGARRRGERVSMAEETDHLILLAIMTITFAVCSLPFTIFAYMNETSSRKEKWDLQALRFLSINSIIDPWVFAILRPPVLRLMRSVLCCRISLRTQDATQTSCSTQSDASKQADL
Chain of PTGER2 (EP2) (P43116 whole entry): as above

What is called IC50 is the point on the concentration scale where inhibition reaches its midpoint. A higher IC50 goes with lower potency. On to `COc1cc(-c2cc(NCCc3ccc(Br)cc3)ncn2)ccc1OCCO` [Example 16, 2-(4-{6-[2-(4-Bromo-phenyl)-ethylamino]-pyrimidin-4-yl}-2-methoxy-phenoxy)-ethanol], for which the half-inhibitory concentration (IC50) on EP2 was determined as 795 nM; at EP4 it was 914 nM.
Turning to `O=C(O)c1sc(-c2cc(NCCc3c(F)cc(Br)cc3F)ncn2)cc1OCCO` [Example 32, 5-{6-[2-(4-Bromo-2,6-difluoro-phenyl)-ethylamino]-pyrimidin-4-yl}-3-(2-hydroxy-ethoxy)-thiophene-2-carboxylic acid], the values for the IC50 at EP2 and against EP4 were 55 nM and 30 nM, respectively.
Turning to `O=c1[nH]c(-c2cccc(-c3cc(NCCc4ccc(Br)cc4)ncn3)c2)no1` [Example 147, 3-(3-{6-[2-(4-Bromo-phenyl)-ethylamino]-pyrimidin-4-yl}-phenyl)-[1,2,4]oxadiazol-5(4H)-one], the half-maximal inhibitory concentration (IC50) on EP2 stood at 490 nM; against EP4, 834 nM.
For `CCOc1cc(-c2cc(NCCc3c(OC)cc(Br)cc3OC)ncn2)ccc1C(=O)O` [Example 52, 4-{6-[2-(4-Bromo-2,6-dimethoxy-phenyl)-ethylamino]-pyrimidin-4-yl}-2-ethoxy-benzoic acid], the results for the IC50 against EP2 and against EP4 were 343 nM and 626 nM, respectively.
Turning to `COc1cc(-c2cc(NCCc3ccc(Br)cc3)ncn2)sc1C1(O)COC1` [Example 13, 3-(5-{6-[2-(4-Bromo-phenyl)-ethylamino]-pyrimidin-4-yl}-3-methoxy-thiophen-2-yl)-oxetan-3-ol], the IC50 at EP2 was 294 nM; on EP4 it was 636 nM.
Turning to `O=c1[nH]c(-c2ccc(-c3cc(NCCc4ccc(Br)cc4)ncn3)cc2)no1` [Example 14, 3-(4-{6-[2-(4-Bromo-phenyl)-ethylamino]-pyrimidin-4-yl}-phenyl)-[1,2,4]oxadiazol-5(4H)-one], the figures for the half-maximal inhibitory concentration (IC50) at EP2 and at EP4 were 257 nM and 262 nM, respectively.
On the same counts, the results for `CCOc1cc(-c2cc(NCCc3ccc(SC)cc3OC)ncn2)sc1C(=O)O` [Example 4, 3-Ethoxy-5-{6-[2-(2-methoxy-4-methylsulfanyl-phenyl)-ethylamino]-pyrimidin-4-yl}-thiophene-2-carboxylic acid] are 38 nM and 5 nM.
For `CCOc1cc(-c2cc(NCCc3ccc(Br)cc3)ncn2)sc1-c1noc(CO)n1` [Example 143, [3-(5-{6-[2-(4-Bromo-phenyl)-ethylamino]-pyrimidin-4-yl}-3-ethoxy-thiophen-2-yl)-[1,2,4]oxadiazol-5-yl]-methanol], in that order: 604 nM and 344 nM.
For `COc1cc(SC)ccc1CCNc1cc(-c2ccc(C(=O)O)c(OC3CCC3)c2)ncn1` [Example 8, 2-Cyclobutoxy-4-{6-[2-(2-methoxy-4-methylsulfanyl-phenyl)-ethylamino]-pyrimidin-4-yl}-benzoic acid], in that order: 340 nM and 262 nM.
Turning to `CCOc1cc(-c2cc(NCCc3ccc(Br)cc3)ncn2)sc1C(C)O` (centres unmarked) [Example 145, 1-(5-{6-[2-(4-Bromo-phenyl)-ethylamino]-pyrimidin-4-yl}-3-ethoxy-thiophen-2-yl)-ethanol], the results for the concentration for half-maximal inhibition (IC50) against EP2 and against EP4 were 1120 nM and 690 nM, respectively.
`Oc1c(F)cc(-c2cc(NCCc3ccc(Br)cc3)ncn2)cc1F` [Example 12, 4-{6-[2-(4-Bromo-phenyl)-ethylamino]-pyrimidin-4-yl}-2,6-difluoro-phenol]: the concentration for half-maximal inhibition (IC50) at EP2 amounted to 885 nM; against EP4, 617 nM.
As for `CCOc1cc(-c2cc(NCCc3ccc(Br)cc3)ncn2)sc1-c1noc(C2COC2)n1` [Example 142, [2-(4-Bromo-phenyl)-ethyl]-{6-[4-ethoxy-5-(5-oxetan-3-yl-[1,2,4]oxadiazol-3-yl)-thiophen-2-yl]-pyrimidin-4-yl}-amine], the 50% inhibitory concentration (IC50) at EP2 came to 700 nM; against EP4 it was 571 nM.
For `CCOc1cc(-c2cc(NCCc3ccc(Br)cc3N(C)C)ncn2)sc1-c1noc(=O)[nH]1` [Example 109, 3-(5-{6-[2-(4-Bromo-2-dimethylamino-phenyl)-ethylamino]-pyrimidin-4-yl}-3-ethoxy-thiophen-2yl)-[1,2,4]oxadiazol-5(4H)-one], the IC50 came out at 558 nM at EP2 and 254 nM at EP4.
For `CC(C(=O)O)c1ccc(-c2cc(NCCc3ccc(Br)cc3)ncn2)s1` (racemic) [Example 159, rac-2-(5-{6-[2-(4-Bromo-phenyl)-ethylamino]-pyrimidin-4-yl}-thiophen-2-yl)-propionic acid], in that order: 392 nM and 602 nM.
Consider `CCOc1cc(-c2cc(NCCc3ccc(Br)cc3Cl)ncn2)sc1-c1noc(=O)[nH]1` [Example 124, 3-(5-{6-[2-(4-Bromo-2-chloro-phenyl)-ethylamino]-pyrimidin-4-yl}-3-ethoxy-thiophen-2-yl)-[1,2,4]oxadiazol-5(4H)-one], for which the IC50 amounted to 46 nM on EP2 and 36 nM at EP4.
`Cn1[nH]c(=O)c2ccc(-c3cc(NCCc4ccc(Br)cc4)ncn3)cc21` [Example 9, 6-{6-[2-(4-Bromo-phenyl)-ethylamino]-pyrimidin-4-yl}-1-methyl-1,2-dihydro-indazol-3-one]: the IC50 against EP2 turned out to be 642 nM; on EP4 it was 1080 nM.
For `CCOc1cc(-c2cc(NCCc3c(F)cc(Br)cc3F)ncn2)ccc1C(=O)C(=O)O` [Example 239, (4-{6-[2-(4-Bromo-2,6-difluoro-phenyl)-ethylamino]-pyrimidin-4-yl}-2-ethoxy-phenyl)-oxo-acetic acid], the IC50 against PTGER2 (EP2) was 300 nM; against PTRGER4 (EP4) it was 387 nM.
On to `Cc1cc(-c2cc(NCCc3c(F)cc(Br)cc3F)ncn2)cc(C)c1CC(=O)O` [Example 255, (4-{6-[2-(4-Bromo-2,6-difluoro-phenyl)-ethylamino]-pyrimidin-4-yl}-2,6-dimethyl-phenyl)-acetic acid], for which the IC50 stood at 344 nM against PTGER2 (EP2) and 283 nM against PTRGER4 (EP4).
In the case of `CCOc1cc(-c2cc(NCCc3c(F)cc(Br)cc3F)ncn2)ccc1C(=O)NC` [Example 298, 4-{6-[2-(4-Bromo-2,6-difluoro-phenyl)-ethylamino]-pyrimidin-4-yl}-2-ethoxy-N-methyl-benzamide], the IC50 is 128 nM against PTGER2 (EP2) and 301 nM against PTRGER4 (EP4).
For `COC(=O)c1ccc(-c2cc(NCCc3c(F)cc(Br)cc3F)ncn2)cc1SC` [Example 246, 4-{6-[2-(4-Bromo-2,6-difluoro-phenyl)-ethylamino]-pyrimidin-4-yl}-2-methylsulfanyl-benzoic acid methyl ester], the half-inhibitory concentration (IC50) came out at 479 nM against PTGER2 (EP2) and 277 nM on PTRGER4 (EP4).
On to `CCOc1cc(C(F)(F)F)ccc1CCNc1cc(-c2ccc(CC(=O)O)c(OCC)c2)ncn1` [Example 214, (2-Ethoxy-4-{6-[2-(2-ethoxy-4-trifluoromethyl-phenyl)-ethylamino]-pyrimidin-4-yl}-phenyl)-acetic acid], for which the concentration for half-maximal inhibition (IC50) against PTGER2 (EP2) came to 184 nM; against PTRGER4 (EP4), 62 nM.
On the same counts, the results for `CCCc1cc(-c2cc(NCCc3c(F)cc(Br)cc3F)ncn2)ccc1C(=O)NCCO` [Example 306, 4-{6-[2-(4-Bromo-2,6-difluoro-phenyl)-ethylamino]-pyrimidin-4-yl}-N-(2-hydroxy-ethyl)-2-propyl-benzamide] are 97 nM and 403 nM.
For `CCCc1cc(-c2cc(NCCc3cc(C)c(C)cc3OC)ncn2)ccc1CC(=O)O` [Example 192, (4-{6-[2-(2-Methoxy-4,5-dimethyl-phenyl)-ethylamino]-pyrimidin-4-yl}-2-propyl-phenyl)-acetic acid], in that order: 380 nM and 193 nM.
For `O=C(O)Cc1ccc(-c2cc(NCCc3c(F)cc(Br)cc3F)ncn2)cc1OC1CC1` [Example 260, (4-{6-[2-(4-Bromo-2,6-difluoro-phenyl)-ethylamino]-pyrimidin-4-yl}-2-cyclopropoxy-phenyl)-acetic acid], in that order: 204 nM and 755 nM.
With `CCOc1cc(-c2cc(NCCc3cc(F)c(F)cc3OC)ncn2)sc1C(=O)O` [Example 179, 5-{6-[2-(4,5-Difluoro-2-methoxy-phenyl)-ethylamino]-pyrimidin-4-yl}-3-ethoxy-thiophene-2-carboxylic acid], the values for the IC50 against PTGER2 (EP2) and at PTRGER4 (EP4) were 140 nM and 315 nM, respectively.
For `CCOc1cc(-c2cc(NCCc3c(F)cc(Br)cc3F)ncn2)ccc1C(N)=O` [Example 297, 4-{6-[2-(4-Bromo-2,6-difluoro-phenyl)-ethylamino]-pyrimidin-4-yl}-2-ethoxy-benzamide], in that order: 21 nM and 236 nM.
As to `Fc1cc(Br)cc(F)c1CCNc1cc(-c2ccc3[nH]ccc3c2)ncn1` [Example 258, [2-(4-Bromo-2,6-difluoro-phenyl)-ethyl]-[6-(1H-indol-5yl)-pyrimidin-4-yl]amine], the IC50 at PTGER2 (EP2) is 77 nM; at PTRGER4 (EP4), 174 nM.
For `CCOc1cc(-c2cc(NCCc3ccc(OC(F)F)cc3OC)ncn2)ccc1C(=O)O` [Example 220, 4-{6-[2-(4-Difluoromethoxy-2-methoxy-phenyl)-ethylamino]-pyrimidin-4-yl}-2-ethoxy-benzoic acid], in that order: 401 nM and 839 nM.
On the same counts, the results for `COc1cc(C(F)(F)F)cc(F)c1CCNc1cc(-c2ccc(C(=O)O)c(SC)c2)ncn1` [Example 230, 4-{6-[2-(2-Fluoro-6-methoxy-4-trifluoromethyl-phenyl)-ethylamino]-pyrimidin-4-yl}-2-methylsulfanyl-benzoic acid] are 662 nM and 152 nM.
For `Cc1cc(-c2cc(NCCc3c(F)cc(Br)cc3F)ncn2)cc(Cl)c1CC(=O)O` [Example 264, (4-{6-[2-(4-Bromo-2,6-difluoro-phenyl)-ethylamino]-pyrimidin-4-yl}-2-chloro-6-methyl-phenyl)-acetic acid], in that order: 372 nM and 465 nM.
As to `COc1ccc(SC)cc1CCNc1cc(-c2ccc(C(=O)O)c(OC3CCC3)c2)ncn1` [Example 173, 2-Cyclobutoxy-4-{6-[2-(2-methoxy-5-methylsulfanyl-phenyl)-ethylamino]pyrimidin-4-yl}-benzoic acid], the figures for the 50% inhibitory concentration (IC50) at PTGER2 (EP2) and on PTRGER4 (EP4) were 107 nM and 519 nM, respectively.
